Results taken from patent publication US5300672A (priority 1992, dated 1994).
Where two headings read alike, the source gives them in different places.

Legend:
[1] = tested on: Pellicularia filamentosa (f. sp. sasiki); test: whole plant or invertebrate; format: in vivo; settings: 120 h; read-out: % Control RSB
Phytophthora infestans = test: whole plant or invertebrate; format: in vivo; settings: Phytophthora infestans, in Solanum lycopersicum, 96 h
[2] = tested on: Puccinia graminis (f. sp. tritici Race 15B-2); test: whole plant or invertebrate; format: in vivo; settings: Puccinia graminis, 336 h, read-out: % Control WSR
[3] = tested on: Puccinia recondita (f. sp. tritici Races PKB and PLD); test: whole plant or invertebrate; format: in vivo; settings: Puccinia recondita, 240 h; read-out: % Control WLR
Piricularia oryzae = test: whole plant or invertebrate; format: in vivo; settings: Pyricularia oryzae; for pest or weed control at 25 ppm: read-out: % Control RB, application rate 25 ppm; for pest or weed control at 50 ppm: read-out: % Control RB, application rate 50 ppm
[4] = tested on: Pseudoperonospora cubensis; test: whole plant or invertebrate; format: in vivo; settings: Pseudoperonospora cubensis, in Cucumis sativus, 168 h; read-out: % Control CDM
Pseudomonas fluorescens = test: Alternate Minimum Inhibitory Concentrations Test (Table 4), Ps.fl; format: cell-based; settings: Pseudomonas fluorescens; Table 4 alternate test; 250 ppm to 0.8 ppm in TSB, 72 hours, 30° C.; read-out: MIC Ps.fl
How it was run: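 Broth microdilution MIC in TSB: compound (from acetone stock) serially diluted 1:1 from 250 ppm to 0.8 ppm, inoculated with diluted 24 h culture. After 3 days at 30 °C, the lowest concentration with no growth was recorded as MIC.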

[5] = tested on: Erysiphe graminis (f. sp. tritici); test: whole plant or invertebrate; format: in vivo; settings: Blumeria graminis; read-out: % Control WPM
[6] = read-out: % Control RB, application rate 100 ppm
[7] = read-out: % Control RB, application rate 200 ppm

Compound: CCCCCCCCNC(=O)/C=C\SCc1ccc(C(F)(F)F)cc1 [Compound 33, N-octyl-cis-3-[(4-(trifluoromethyl)benzyl)thio]acrylamide]
- pest or weed control at 100 ppm [1]: 0%
- pest or weed control at 100 ppm (Phytophthora infestans; read-out: % Control TLB): 80%
- pest or weed control at 200 ppm [2]: 75%
- pest or weed control at 100 ppm [3]: 0%
- pest or weed control at 25 ppm (Piricularia oryzae): 80%
- pest or weed control at 50 ppm [4]: 50%
- MIC (Pseudomonas fluorescens): > 250 µg/mL
- pest or weed control at 100 ppm [5]: 85%

Compound: CCCCCCCCNC(=O)/C=C\SC(=O)COc1ccccc1 [Compound 26, N-octyl-cis-3-(phenoxyacetylthio)acrylamide]
- pest or weed control at 100 ppm [1]: 0%
- pest or weed control at 100 ppm (Phytophthora infestans; read-out: % Control TLB): 90%
- pest or weed control at 100 ppm [2]: 90%
- pest or weed control at 100 ppm [3]: 0%
- pest or weed control at 100 ppm (Piricularia oryzae; [6]): 80%
- pest or weed control at 50 ppm [4]: 85%
- MIC (Pseudomonas fluorescens): > 250 µg/mL
- pest or weed control at 100 ppm [5]: 0%

Compound: C/C=C/C=C/C(=O)S/C=C\C(=O)NCCCCCCCC [Compound 59, N-octyl-cis-3-[(trans,trans-2,4-hexadienoyl)thio]acrylamide]
- pest or weed control at 50 ppm [1]: 50%
- pest or weed control at 200 ppm (Phytophthora infestans; read-out: % Control TLB): 80%
- pest or weed control at 200 ppm [2]: 50%
- pest or weed control at 200 ppm [3]: 0%
- pest or weed control at 200 ppm (Piricularia oryzae; [7]): 0%
- pest or weed control at 50 ppm [4]: 70%
- MIC (Pseudomonas fluorescens): > 250 µg/mL
- pest or weed control at 200 ppm [5]: 0%

Compound: CCCCCCCCNC(=O)/C=C\SC(=O)c1ccccc1Br [Compound 5, N-octyl-cis-3-[(2-bromobenzoyl)thio]acrylamide]
- pest or weed control at 100 ppm [1]: 0%
- pest or weed control at 100 ppm (Phytophthora infestans; read-out: % Control TLB): 90%
- pest or weed control at 200 ppm [2]: 75%
- pest or weed control at 100 ppm [3]: 0%
- pest or weed control at 25 ppm (Piricularia oryzae): 80%
- pest or weed control at 50 ppm [4]: 50%
- MIC (Pseudomonas fluorescens): > 250 µg/mL
- pest or weed control at 100 ppm [5]: 0%

Compound: CCCCCCCCNC(=O)/C=C\SC(=O)c1cccc(OC)c1[N+](=O)[O-] [Compound 98, N-octyl-cis-3-[(2-nitro-3-methoxybenzoyl)thio]acrylamide]
- pest or weed control at 200 ppm [1]: 0%
- pest or weed control at 200 ppm (Phytophthora infestans; read-out: % Control TLB): 90%
- pest or weed control at 100 ppm [2]: 0%
- pest or weed control at 200 ppm [3]: 50%
- pest or weed control at 200 ppm (Piricularia oryzae; read-out: % Control RB): 99%
- pest or weed control at 200 ppm [4]: 50%
- MIC (Pseudomonas fluorescens): > 250 µg/mL
- pest or weed control at 50 ppm [5]: 0%

Compound: CCCCCCCCNC(=O)/C=C\SC(=O)/C=C/c1ccccc1 [Compound 14, N-octyl-cis-3-[(trans-3-phenylprop-2-enoyl)thio]acrylamide]
- pest or weed control at 100 ppm [1]: 0%
- pest or weed control at 100 ppm (Phytophthora infestans; read-out: % Control TLB): 90%
- pest or weed control at 200 ppm [2]: 75%
- pest or weed control at 100 ppm [3]: 0%
- pest or weed control at 100 ppm (Piricularia oryzae; read-out: % Control RB): 100%
- pest or weed control at 50 ppm [4]: 50%
- MIC (Pseudomonas fluorescens): > 250 µg/mL
- pest or weed control at 100 ppm [5]: 0%

Compound: CCCCCCCCNC(=O)/C=C\SC(=O)C1=CC(=O)CC(C)(C)O1 [Compound 89, N-octyl-cis-3-[(3,4-dihydro-2,2-dimethyl-4-oxo-2H-pyran-6-carbonyl)thio]acrylamide]
- pest or weed control at 200 ppm [1]: 0%
- pest or weed control at 200 ppm (Phytophthora infestans; read-out: % Control TLB): 90%
- pest or weed control at 100 ppm [2]: 80%
- pest or weed control at 200 ppm [3]: 90%
- pest or weed control at 200 ppm (Piricularia oryzae; read-out: % Control RB): 95%
- pest or weed control at 200 ppm [4]: 70%
- MIC (Pseudomonas fluorescens): > 250 µg/mL
- pest or weed control at 200 ppm [5]: 0%

Compound: CCCCCCCCNC(=O)/C=C\SC(=O)c1ccc2ccccc2c1 [Compound 56, N-octyl-cis-3-[(2-naphthanoyl)thio]acrylamide]
- pest or weed control at 50 ppm [1]: 80%
- pest or weed control at 200 ppm (Phytophthora infestans; read-out: % Control TLB): 80%
- pest or weed control at 200 ppm [2]: 75%
- pest or weed control at 200 ppm [3]: 0%
- pest or weed control at 200 ppm (Piricularia oryzae; [7]): 0%
- pest or weed control at 12 ppm [4]: 50%
- MIC (Pseudomonas fluorescens): > 250 µg/mL
- pest or weed control at 200 ppm [5]: 0%

Compound: CCCCCCCCNC(=O)/C=C\SC(=O)c1ccc(F)cc1 [Compound 3, N-octyl-cis-3-[(4-fluorobenzoyl)thio]acrylamide]
- pest or weed control at 100 ppm [1]: 0%
- pest or weed control at 100 ppm (Phytophthora infestans; read-out: % Control TLB): 90%
- pest or weed control at 200 ppm [2]: 75%
- pest or weed control at 100 ppm [3]: 0%
- pest or weed control at 100 ppm (Piricularia oryzae; [6]): 80%
- pest or weed control at 50 ppm [4]: 85%
- MIC (Pseudomonas fluorescens): > 250 µg/mL
- pest or weed control at 100 ppm [5]: 0%

Compound: CCCCCCCCNC(=O)/C=C\SC(=O)C(C)(C)CCl [Compound 44, N-octyl-cis-3-[(2,2-dimethyl-3-chloropropanoyl)thio]acrylamide]
- pest or weed control at 200 ppm [1]: 0%
- pest or weed control at 200 ppm (Phytophthora infestans; read-out: % Control TLB): 90%
- pest or weed control at 100 ppm [2]: 0%
- pest or weed control at 200 ppm [3]: 0%
- pest or weed control at 200 ppm (Piricularia oryzae; [7]): 0%
- pest or weed control at 200 ppm [4]: 0%
- MIC (Pseudomonas fluorescens): > 250 µg/mL
- pest or weed control at 200 ppm [5]: 0%

Compound: CCCCCC#CC(=O)S/C=C\C(=O)NCCCCCCCC [Compound 86, N-octyl-cis-3-[(2-octynoyl)thio]acrylamide]
- pest or weed control at 200 ppm [1]: 0%
- pest or weed control at 200 ppm (Phytophthora infestans; read-out: % Control TLB): 90%
- pest or weed control at 100 ppm [2]: 0%
- pest or weed control at 200 ppm [3]: 50%
- pest or weed control at 200 ppm (Piricularia oryzae; [7]): 0%
- pest or weed control at 200 ppm [4]: 85%
- MIC (Pseudomonas fluorescens): > 250 µg/mL
- pest or weed control at 200 ppm [5]: 0%

Compound: CCCCCCCCNC(=O)/C=C\SC(=O)CCC(=O)OC [Compound 51, N-octyl-cis-3-[(3-methoxycarbonylpropanoyl)thio]acrylamide]
- pest or weed control at 25 ppm [1]: 90%
- pest or weed control at 100 ppm (Phytophthora infestans; read-out: % Control TLB): 80%
- pest or weed control at 200 ppm [2]: 90%
- pest or weed control at 100 ppm [3]: 0%
- pest or weed control at 200 ppm (Piricularia oryzae; [7]): 0%
- pest or weed control at 50 ppm [4]: 85%
- MIC (Pseudomonas fluorescens): > 250 µg/mL
- pest or weed control at 100 ppm [5]: 0%

Compound: CCCCCCCCNC(=O)/C=C\SC(=O)c1ccco1 [Compound 15, N-octyl-cis-3-(2-furoylthio)acrylamide]
- pest or weed control at 100 ppm [1]: 0%
- pest or weed control at 100 ppm (Phytophthora infestans; read-out: % Control TLB, application rate 100 ppm): 95%
- pest or weed control at 200 ppm [2]: 90%
- pest or weed control at 100 ppm [3]: 95%
- pest or weed control at 100 ppm (Piricularia oryzae; read-out: % Control RB): 100%
- pest or weed control at 50 ppm [4]: 50%
- MIC (Pseudomonas fluorescens): > 250 µg/mL
- pest or weed control at 100 ppm [5]: 0%

Compound: CC(C)(C)CC(C)(C)NC(=O)/C=C\SC(=O)c1ccccc1 [Compound 114]
- pest or weed control at 200 ppm (Phytophthora infestans; read-out: % Control TLB): 90%
- pest or weed control at 100 ppm [2]: 50%
- pest or weed control at 200 ppm [3]: 0%
- pest or weed control at 200 ppm (Piricularia oryzae; [7]): 0%
- pest or weed control at 200 ppm [4]: 95%
- MIC (Pseudomonas fluorescens): > 250 µg/mL
- pest or weed control at 200 ppm [5]: 0%

Compound: CCCCCCCCNC(=O)/C=C\SC(=O)CC1C=CCC1 (stereo not drawn) [Compound 93]
- pest or weed control at 200 ppm [1]: 0%
- pest or weed control at 200 ppm (Phytophthora infestans; read-out: % Control TLB): 90%
- pest or weed control at 100 ppm [2]: 50%
- pest or weed control at 200 ppm [3]: 50%
- pest or weed control at 50 ppm (Piricularia oryzae): 90%
- pest or weed control at 200 ppm [4]: 99%
- MIC (Pseudomonas fluorescens): > 250 µg/mL
- pest or weed control at 200 ppm [5]: 75%

Compound: CCCCCCCCNC(=O)/C=C\SC(=O)/C=C/c1ccco1 [Compound 68, N-octyl-cis-3-[(trans-3-(2-furan)propenoyl)thio]acrylamide]
- pest or weed control at 200 ppm [1]: 0%
- pest or weed control at 200 ppm (Phytophthora infestans; read-out: % Control TLB): 90%
- pest or weed control at 200 ppm [2]: 90%
- pest or weed control at 200 ppm [3]: 0%
- pest or weed control at 50 ppm (Piricularia oryzae): 80%
- pest or weed control at 12 ppm [4]: 70%
- MIC (Pseudomonas fluorescens): > 250 µg/mL
- pest or weed control at 200 ppm [5]: 0%

Compound: CCCCCCCCNC(=O)/C=C\SC(=O)COC [Compound 87, N-octyl-cis-3-(methoxyacetylthio)acrylamide]
- pest or weed control at 200 ppm [1]: 0%
- pest or weed control at 200 ppm (Phytophthora infestans; read-out: % Control TLB): 90%
- pest or weed control at 10 ppm [2]: 50%
- pest or weed control at 200 ppm [3]: 80%
- pest or weed control at 200 ppm (Piricularia oryzae; read-out: % Control RB): 95%
- pest or weed control at 200 ppm [4]: 100%
- MIC (Pseudomonas fluorescens): > 250 µg/mL
- pest or weed control at 12 ppm [5]: 50%
